The NIST ThermoML archive (doi:10.1016/j.jct.2005.08.007)
“And” between values parts separate entries of the source, which are not always exact repeats. Identical values can stand only once. Numbers after ± are expanded uncertainties.

Details: Crystal, Calculated from knudsen effusion weight loss

SMILES	vapor or sublimation pressure (305.14 K)	vapor or sublimation pressure (307.15 K)	vapor or sublimation pressure (309.16 K)	vapor or sublimation pressure (311.15 K)	vapor or sublimation pressure (313.15 K)	vapor or sublimation pressure (315.13 K)	vapor or sublimation pressure (317.13 K)	vapor or sublimation pressure (319.17 K)	vapor or sublimation pressure (321.14 K)	vapor or sublimation pressure (361.11 K)	vapor or sublimation pressure (363.08 K)	vapor or sublimation pressure (365.26 K)	vapor or sublimation pressure (367.09 K)	vapor or sublimation pressure (369.04 K)	vapor or sublimation pressure (371.26 K)	vapor or sublimation pressure (373.26 K)	vapor or sublimation pressure (375 K)	vapor or sublimation pressure (377.06 K)
O=[N+]([O-])c1cccc2ccccc12 [1-nitronaphthalene]	0.0001735 ± 8.7e-06 kPa and 0.0001744 ± 8.7e-06 kPa and 0.0001738 ± 8.7e-06 kPa	0.0002252 ± 1.1e-05 kPa and 0.0002215 ± 1.1e-05 kPa and 0.000218 ± 1.1e-05 kPa	0.0002813 ± 1.4e-05 kPa and 0.0002824 ± 1.4e-05 kPa and 0.0002776 ± 1.4e-05 kPa	0.0003559 ± 1.8e-05 kPa and 0.0003531 ± 1.8e-05 kPa and 0.0003518 ± 1.8e-05 kPa	0.0004632 ± 2.3e-05 kPa and 0.0004566 ± 2.3e-05 kPa and 0.0004531 ± 2.3e-05 kPa	0.0005799 ± 2.9e-05 kPa and 0.0005723 ± 2.9e-05 kPa and 0.0005739 ± 2.9e-05 kPa	0.0006969 ± 3.5e-05 kPa and 0.0007016 ± 3.5e-05 kPa and 0.0006949 ± 3.5e-05 kPa	0.0008754 ± 4.4e-05 kPa and 0.0008956 ± 4.5e-05 kPa and 0.0008803 ± 4.4e-05 kPa	0.001127 ± 0.00012 kPa and 0.001114 ± 0.00011 kPa and 0.001108 ± 0.00011 kPa									
O=[N+]([O-])c1c2ccccc2cc2ccccc12 [9-nitroanthracene]										0.00019 ± 1e-05 kPa and 0.000196 ± 1e-05 kPa and 0.000195 ± 1e-05 kPa	0.000236 ± 1.2e-05 kPa and 0.000238 ± 1.2e-05 kPa	0.000291 ± 1.5e-05 kPa and 0.000294 ± 1.5e-05 kPa	0.000354 ± 1.8e-05 kPa and 0.000339 ± 1.7e-05 kPa and 0.000342 ± 1.7e-05 kPa	0.000431 ± 2.2e-05 kPa and 0.000439 ± 2.2e-05 kPa and 0.000427 ± 2.1e-05 kPa	0.000532 ± 2.7e-05 kPa and 0.000526 ± 2.6e-05 kPa and 0.000534 ± 2.7e-05 kPa	0.00064 ± 3.2e-05 kPa and 0.000643 ± 3.2e-05 kPa and 0.000647 ± 3.2e-05 kPa	0.000772 ± 3.9e-05 kPa and 0.000773 ± 3.9e-05 kPa and 0.000761 ± 3.8e-05 kPa	0.000928 ± 4.6e-05 kPa and 0.000924 ± 4.6e-05 kPa
